PubChem BioAssay (NCI)
Several values for one entry are separate records, joined by “and”; a condition that tells them apart may be missing. Equal entries are not always repeated.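 Interpolation was linear, between the two tested concentrations surrounding the appropriate level; five concentrations were tested over 48 hours in 96-well plates. GI50 is the concentration that inhibits growth by half. TGI: concentration producing complete growth inhibition.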

The molecules below were run on BT-549 breast (assay: DTP human tumour cell line panel, 48 h).

Row | Compound | GI50 | TGI
1 | O=c1[nH]c(=O)n(C2CC(O)C(CO)O2)cc1CO (centres undefined) | > 100 µM | > 100 µM
2 | COc1ccc(-c2oc(=O)ccc2-c2cc(OC)c(OC)c(OC)c2)cc1F | 19.7 µM | 88.4 µM
3 | N#Cc1c(-c2ccc(F)cc2)c(-c2ccc(F)cc2)nn(CCO)c1=O | – | 39.9 µM
4 | Ic1ccc(-n2nnnc2-c2cnoc2-c2ccccc2)cc1 | – | 9.49 µM
5 | O=c1cc(-c2ccccc2)[nH]c2c(S)cccc12 | – | > 100 µM
6 | Cc1cn2c(/C=C3\C(=O)Nc4ccc(O)cc43)c(-c3ccc(Cl)cc3)nc2s1 | 17.3 µM | 41.5 µM
7 | COc1c(OC)c(OC)c(C(=O)/C=C/c2ccccc2)c(OC)c1OC | – | 18.1 µM
8 | COc1cc(C2c3cc4c(cc3C(O)C(CO)C2CO)OCO4)cc(OC)c1OC (centres undefined) | 1.92 µM | > 54.9 µM
9 | COc1ccc2[nH]cc(-c3nc(-c4c[nH]c5ncccc45)cs3)c2c1 | 5.35 µM | > 100 µM
10 | CCN(CC)CCOc1ccc(/C=C2\CC3C4CC=C5C[C@@H](O)CC[C@]5(C)C4CC[C@]3(C)C2=O)cc1OC (some centres undefined) | 26 µM | > 52.6 µM
11 | Oc1cc(O)c2c(c1)OC(c1ccc(O)c(O)c1)C(OC1(c3cc(O)c(O)c(O)c3)Oc3cc(O)cc(O)c3C(O)C1O)C2 (centres undefined) | – | > 83.6 µM
12 | N#C/C=C(\c1ccc([N+](=O)[O-])cc1)n1nnc2cc(Cl)c(Cl)cc21 | 1.77 µM | 3.77 µM
13 | Cc1nc2cnc(N)c(C#Cc3cncc(C(=O)Nc4ccc(CN5CCN(C)CC5)c(C(F)(F)F)c4)c3)c2nc1C | 2 µM | 11.8 µM
14 | CC1(C)OCCn2c1nc1c(N3CCOCC3)nc(-c3cnc(N)nc3)nc12 | 0.183 µM | 2.91 µM
15 | Cc1nc2ccccc2nc1-c1ccc(N=[N+]([O-])c2ccc(-c3nc4ccccc4nc3C)cc2)cc1 | – | > 100 µM
16 | Nc1nccc2c1ccn2-c1ccc(NC(=O)c2ccc(N3CCOCC3)c(C(F)(F)F)c2)cc1 | 1.03 µM | 24.7 µM
17 | CCN(CC)c1nc(-c2ccc(Cl)cc2Cl)nc2ccccc12 | 25.4 µM | 54.1 µM

Row | Compound | GI50 | TGI
18 | NS(=O)(=O)c1ccc(N(/C=C/C(=O)C(F)(F)F)CC(=O)c2ccc(Cl)cc2)cc1 | 44.5 µM | > 100 µM
19 | O=c1cc2oc3cc(O)c(O)cc3c(-c3ccccc3O)c-2cc1O | 14.4 µM | 40.3 µM
20 | Nc1c(C(=O)Nc2cccc(Br)c2)sc2nc3c(cc12)C(=O)CCC3 | 3.1 µM | > 100 µM
21 | C=CCc1cccc(/C=N/NC(=O)CN2CCN(Cc3ccccc3)CC2)c1O | 2.84 µM | 15.3 µM
22 | CCCCCCNC(=O)c1nc(-c2ccccc2)oc1Cc1ccc(OP(=O)(O)O)cc1 | 16.8 µM | 32.7 µM
23 | CCOC(=O)C(=Cc1cccc(Cl)c1)C(=O)OCC | 2.06 µM | 5.07 µM
24 | COc1cc(CNCCCN2C(=O)c3ccc4c5c(ccc(c35)C2=O)C(=O)N(CCCNCc2cc(OC)c(OC)c(OC)c2)C4=O)cc(OC)c1OC | 0.852 µM | 1.77 µM
25 | O=C(c1c(F)ccc(NS(=O)(=O)N2CC[C@@H](F)C2)c1F)c1c[nH]c2ncc(-c3cnc(C4CC4)nc3)cc12 | > 8.75 µM and 6.83 µM | > 10 µM and 38.1 µM
26 | CCCn1c(N)c(C(=O)N/N=C(/C)c2cc3cccc(OC)c3o2)sc1=S | 77.5 µM | > 100 µM
27 | C=CC(=O)N1CCC(C2CCNc3c(C(N)=O)c(-c4ccc(Oc5ccccc5)cc4)nn32)CC1 (centres undefined) | 12.9 µM | 52.4 µM
28 | CCOc1ccc2nc(S/C(=C/C=C(C#N)C#N)c3ccc(C)cc3)sc2c1 | 25.6 µM | 70.1 µM
29 | COc1ccncc1C#Cc1cncc(C(=O)Nc2ccc(CN3CCN(C)CC3)c(C(F)(F)F)c2)c1 | 21.1 µM | > 100 µM
30 | C=CCCCCCCCCCCC1(O)C=CC2=[N+](CCCCCN=C(N)N)CCCN21 (centres undefined) | 3.56 µM | 13.2 µM
31 | Cc1csc(Nc2nc(-c3cccc(Br)c3)nc(C(Cl)(Cl)Cl)n2)n1 | > 100 µM | > 100 µM
32 | COC12C=C/C(=C(/C(=O)OCc3ccncc3)C(=O)CCCCCCCCC3(OC)C=C/C(=C(/C(=O)OCc4ccncc4)C(=O)CCCCCCCC1)O3)O2 | 0.638 µM | 3.21 µM
33 | Cn1cnc([N+](=O)[O-])c1S(=O)(=O)Oc1ccccc1 | 20.7 µM | 45.4 µM

What follows are molecules tested on MDA-N (assay: DTP human tumour cell line panel, 48 h).

Row | Compound | TGI
34 | N#Cc1c(-c2ccc(F)cc2)c(-c2ccc(F)cc2)nn(CCO)c1=O | 0.121 µM
35 | O=c1cc(-c2ccccc2)[nH]c2c(S)cccc12 | > 100 µM
36 | CC(=C\c1ccccc1)/C=C(\C#N)C(N)=O | > 10 µM
37 | COc1c(OC)c(OC)c(C(=O)/C=C/c2ccccc2)c(OC)c1OC | 70.2 µM
38 | Oc1cc(O)c2c(c1)OC(c1ccc(O)c(O)c1)C(OC1(c3cc(O)c(O)c(O)c3)Oc3cc(O)cc(O)c3C(O)C1O)C2 (centres undefined) | 49.5 µM
39 | Cc1nc2ccccc2nc1-c1ccc(N=[N+]([O-])c2ccc(-c3nc4ccccc4nc3C)cc2)cc1 | > 100 µM
40 | CCN1CCN=c2c3cc(OC)ccc3n3cnc4ccc1c2c43 | 1.11 µM
41 | CC(=O)OC12c3ccccc3-c3ccccc3C1C1C(=O)N(C)C(=O)C12Cl (centres undefined) | > 10 µM
42 | O=c1c2ccccc2sc2cccc(NCCCN3CCN(CCCNc4cccc5sc6ccccc6c(=O)c45)CC3)c12 | > 100 µM
